Test results: patent US20220389007A1, “INHIBITORS OF HUMAN IMMUNODEFICIENCY VIRUS REPLICATION” (VIIV HEALTHCARE UK (No. 5) LIMITED, priority 2019, published 2022)

Tests used:
recombinant NL4-3 virus = test: HIV cell culture assay (antiviral activity, luciferase readout); assay type: cell-based; details: Human immunodeficiency virus 1, NL43, MT2, MT-2 cells infected for 4-5 days with recombinant NL4-3 virus carrying Renilla luciferase
Experimental: HIV cell culture assay—MT-2 cells, 293T cells and the proviral DNA clone of NL4-3 virus were obtained from the NIH AIDS Research and Reference Reagent Program. MT-2 cells were propagated in RPMI 1640 media supplemented with 10% heat inactivated fetal bovine serum (FBS), […]. The 293T cells were propagated in DMEM media supplemented with 10% heat inactivated FBS, […]. A recombinant NL4-3 proviral clone, in which a section of the nef gene was replaced with the Renilla luciferase gene, was used to make the reference virus used in these studies. The recombinant virus was prepared through transfection of the recombinant NL4-3 proviral clone into 293T cells using Transit-293 Transfection Reagent from Mirus Bio LLC (Madison, WI). Supernatent was harvested after 2-3 days and the amount of virus present was titered in MT-2 cells using luciferase enzyme activity as a marker by measuring luciferase enzyme activity. Luciferase was quantitated using the EnduRen Live Cell Substrate from Promega (Madison, Wis.). Antiviral activities of compounds toward the recombinant virus were quantified by measuring luciferase activity in MT-2 cells infected for 4-5 days with the recombinant virus in the presence of serial dilutions of the compound.
The 50% effective concentration (EC50) was calculated by using the exponential form of the median effect equation where (Fa)=1/[1+(ED50/drug conc.)m] (Johnson VA, Byington RT. Infectivity Assay. In Techniques in HIV Research. ed. Aldovini A, Walker BD. 71-76. New York: Stockton Press. 1990). The 50% inhibitory concentration (EC50) was calculated by using the exponential form of the median effect equation where percent inhibition=1/[1+(EC50/drug concentration)m], where m is a parameter that reflects the slope of the concentration-response curve.

[1] = Compound cytotoxicity, XTT-based colorimetric assay; assay type: cell-based; details: human; uninfected MT2 cells, day 4, XTT assay
Experimental: Compound cytotoxicity and the corresponding CC50 values were determined using the same protocol as described in the antiviral assay except that uninfected cells were used. Cytotoxicity was assessed on day 4 in uninfected MT2 cells by using a XTT (2,3-bis[2-Methoxy-4-nitro-5-sulfophenyl]-2H-tetrazolium-5-carboxyanilide inner salt)-based colorimetric assay (Sigma-Aldrich, St Louis, Mo.).

Row | Compound | EC50 (recombinant NL4-3 virus) [nM] | CC50 at 4 day [1] [nM]
1 | Cn1nc(NS(C)(=O)=O)c2c(Cl)ccc(-n3c([C@H](Cc4cc(F)cc(F)c4)NC(=O)Cn4nc(C(F)F)c5c4C(F)(F)[C@@H]4C[C@H]54)nc4nc(-c5ccc(S(C)(=O)=O)cc5F)ccc4c3=O)c21 (atropisomer, axis not shown; (P)) [Example 32, N-((S)-1-((3P)-3-(4-chloro-1-methyl-3-(methylsulfonamido)-1H-indazol-7-yl)-7-(2-fluoro-4-(methylsulfonyl)phenyl)-4-oxo-3,4-dihydropyrido[2,3-d]pyrimidin-2-yl)-2-(3,5-difluorophenyl)ethyl)-2-((3bS,4aR)-3-(difluoromethyl)-5,5-difluoro-3b,4,4a,5-tetrahydro-1H-cyclopropa[3,4]cyclopenta[1,2-c]pyrazol-1-yl)acetamide] | 0.075 | > 100
2 | Cn1nc(NS(C)(=O)=O)c2c(Cl)ccc(-n3c([C@H](Cc4cc(F)cc(F)c4)NC(=O)Cn4nc(C(F)F)c5c4C(F)(F)[C@@H]4C[C@H]54)nc4nc(-c5cccc(F)n5)ccc4c3=O)c21 (atropisomer, axis not shown; (P)) [Example 30, N-((S)-1-((3P)-3-(4-chloro-1-methyl-3-(methylsulfonamido)-1H-indazol-7-yl)-7-(6-fluoropyridin-2-yl)-4-oxo-3,4-dihydropyrido[2,3-d]pyrimidin-2-yl)-2-(3,5-difluorophenyl)ethyl)-2-((3bS,4aR)-3-(difluoromethyl)-5,5-difluoro-3b,4,4a,5-tetrahydro-1H-cyclopropa[3,4]cyclopenta[1,2-c]pyrazol-1-yl)acetamide] | 0.034 | > 100
3 | Cn1nc(NS(C)(=O)=O)c2c(Cl)ccc(-n3c([C@H](Cc4cc(F)cc(F)c4)NC(=O)Cn4nc(C(F)F)c5c4C(F)(F)[C@@H]4C[C@H]54)nc4nc(-c5cncc(C(F)(F)F)n5)ccc4c3=O)c21 (atropisomer, axis not shown; (P)) [Example 13, N-((S)-1-((3P)-3-(4-chloro-1-methyl-3-(methylsulfonamido)-1H-indazol-7-yl)-4-oxo-7-(6-(trifluoromethyl)pyrazin-2-yl)-3,4-dihydropyrido[2,3-d]pyrimidin-2-yl)-2-(3,5-difluorophenyl)ethyl)-2-((3bS,4aR)-3-(difluoromethyl)-5,5-difluoro-3b,4,4a,5-tetrahydro-1H-cyclopropa[3,4]cyclopenta[1,2-c]pyrazol-1-yl)acetamide] | 0.04 | > 100
4 | Cn1nc(NS(C)(=O)=O)c2c(Cl)ccc(-n3c([C@H](Cc4cc(F)cc(F)c4)NC(=O)Cn4nc(C(F)F)c5c4C(F)(F)[C@@H]4C[C@H]54)nc4nc(-c5cccc(C(F)F)c5)ccc4c3=O)c21 (atropisomer, axis not shown; (P)) [Example 23, N-((S)-1-((3P)-3-(4-chloro-1-methyl-3-(methylsulfonamido)-1H-indazol-7-yl)-7-(3-(difluoromethyl)phenyl)-4-oxo-3,4-dihydropyrido[2,3-d]pyrimidin-2-yl)-2-(3,5-difluorophenyl)ethyl)-2-((3bS,4aR)-3-(difluoromethyl)-5,5-difluoro-3b,4,4a,5-tetrahydro-1H-cyclopropa[3,4]cyclopenta[1,2-c]pyrazol-1-yl)acetamide] | 0.11 | > 100
5 | Cn1nc(NS(C)(=O)=O)c2c(Cl)ccc(-n3c([C@H](Cc4cc(F)cc(F)c4)NC(=O)Cn4nc(C(F)F)c5c4C(F)(F)[C@@H]4C[C@H]54)nc4nc(-c5ccc6ncsc6c5)ccc4c3=O)c21 (atropisomer, axis not shown; (P)) [Example 71, N-((S)-1-(7-(benzo[d]thiazol-6-yl)-(3P)-3-(4-chloro-1-methyl-3-(methylsulfonamido)-1H-indazol-7-yl)-4-oxo-3,4-dihydropyrido[2,3-d]pyrimidin-2-yl)-2-(3,5-difluorophenyl)ethyl)-2-((3bS,4aR)-3-(difluoromethyl)-5,5-difluoro-3b,4,4a,5-tetrahydro-1H-cyclopropa[3,4]cyclopenta[1,2-c]pyrazol-1-yl)acetamide] | 0.097 | > 100
6 | Cn1nc(NS(C)(=O)=O)c2c(Cl)ccc(-n3c([C@H](Cc4cc(F)cc(F)c4)NC(=O)Cn4nc(C(F)F)c5c4C(F)(F)[C@@H]4C[C@H]54)nc4nc(-c5ncncc5C(F)(F)F)ccc4c3=O)c21 (atropisomer, axis not shown; (P)) [Example 17, N-((S)-1-((3P)-3-(4-chloro-1-methyl-3-(methylsulfonamido)-1H-indazol-7-yl)-4-oxo-7-(5-(trifluoromethyl)pyrimidin-4-yl)-3,4-dihydropyrido[2,3-d]pyrimidin-2-yl)-2-(3,5-difluorophenyl)ethyl)-2-((3bS,4aR)-3-(difluoromethyl)-5,5-difluoro-3b,4,4a,5-tetrahydro-1H-cyclopropa[3,4]cyclopenta[1,2-c]pyrazol-1-yl)acetamide] | 0.038 | > 100
7 | Cn1nc(NS(C)(=O)=O)c2c(Cl)ccc(-n3c([C@H](Cc4cc(F)cc(F)c4)NC(=O)Cn4nc(C(F)F)c5c4C(F)(F)[C@@H]4C[C@H]54)nc4nc(-c5ccc(OC(F)F)cc5)ccc4c3=O)c21 (atropisomer, axis not shown; (P)) [Example 27, N-((S)-1-((3P)-3-(4-chloro-1-methyl-3-(methylsulfonamido)-1H-indazol-7-yl)-7-(4-(difluoromethoxy)phenyl)-4-oxo-3,4-dihydropyrido[2,3-d]pyrimidin-2-yl)-2-(3,5-difluorophenyl)ethyl)-2-((3bS,4aR)-3-(difluoromethyl)-5,5-difluoro-3b,4,4a,5-tetrahydro-1H-cyclopropa[3,4]cyclopenta[1,2-c]pyrazol-1-yl)acetamide] | 0.34 | > 100
8 | COc1ccnc(-c2ccc3c(=O)n(-c4ccc(Cl)c5c(NS(C)(=O)=O)nn(C)c45)c([C@H](Cc4cc(F)cc(F)c4)NC(=O)Cn4nc(C(F)F)c5c4C(F)(F)[C@@H]4C[C@H]54)nc3n2)n1 (atropisomer, axis not shown; (P)) [Example 56, N-((S)-1-((3P)-3-(4-chloro-1-methyl-3-(methylsulfonamido)-1H-indazol-7-yl)-7-(4-methoxypyrimidin-2-yl)-4-oxo-3,4-dihydropyrido[2,3-d]pyrimidin-2-yl)-2-(3,5-difluorophenyl)ethyl)-2-((3bS,4aR)-3-(difluoromethyl)-5,5-difluoro-3b,4,4a,5-tetrahydro-1H-cyclopropa[3,4]cyclopenta[1,2-c]pyrazol-1-yl)acetamide] | 0.051 | > 100
9 | Cn1nc(NS(C)(=O)=O)c2c(Cl)ccc(-n3c([C@H](Cc4cc(F)cc(F)c4)NC(=O)Cn4nc(C(F)F)c5c4C(F)(F)[C@@H]4C[C@H]54)nc4nc(-c5ccn(CC(F)(F)C(F)(F)F)n5)ccc4c3=O)c21 (atropisomer, axis not shown; (P)) [Example 88, N-((S)-1-((3P)-3-(4-chloro-1-methyl-3-(methylsulfonamido)-1H-indazol-7-yl)-4-oxo-7-(1-(2,2,3,3,3-pentafluoropropyl)-1H-pyrazol-3-yl)-3,4-dihydropyrido[2,3-d]pyrimidin-2-yl)-2-(3,5-difluorophenyl)ethyl)-2-((3bS,4aR)-3-(difluoromethyl)-5,5-difluoro-3b,4,4a,5-tetrahydro-1H-cyclopropa[3,4]cyclopenta[1,2-c]pyrazol-1-yl)acetamide] | 0.079 | > 100
10 | Cn1nc(NS(C)(=O)=O)c2c(Cl)ccc(-n3c([C@H](Cc4cc(F)cc(F)c4)NC(=O)Cn4nc(C(F)F)c5c4C(F)(F)[C@@H]4C[C@H]54)nc4nc(-c5ccn(CC(F)F)n5)ccc4c3=O)c21 (atropisomer, axis not shown; (P)) [Example 79, N-((S)-1-((3P)-3-(4-chloro-1-methyl-3-(methylsulfonamido)-1H-indazol-7-yl)-7-(1-(2,2-difluoroethyl)-1H-pyrazol-3-yl)-4-oxo-3,4-dihydropyrido[2,3-d]pyrimidin-2-yl)-2-(3,5-difluorophenyl)ethyl)-2-((3bS,4aR)-3-(difluoromethyl)-5,5-difluoro-3b,4,4a,5-tetrahydro-1H-cyclopropa[3,4]cyclopenta[1,2-c]pyrazol-1-yl)acetamide] | 0.047 | > 100
